Assay [1] concerns the target WDR5 (Homo sapiens, UniProt P61964). Nature of the assay: WDR5 HTRF binding assay. The settings on record: read-out: (a) WDR5 HTRF Pep Val v.1[Inhibitor/IC50]Qualified AC50. The essentials: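 In this HTRF displacement format, biotinylated MLL1 WIN peptide (3762-3773, 20 nM) binds WDR5 (6 nM) in 25 mM Hepes pH 7.5 with 100 mM NaCl, 2 mM DTT and 0.1% BSA for 20 min at rt. Detection used streptavidin-APC/anti-His-Eu for 1 hr. IC50 came from dose-response fits of normalized signal; 15 nM biotin-PEG-His peptide served as counter assay.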
For orientation: TR-FRET usually uses a lanthanide donor and a delayed reading to cut background.

Assay [2] deals with wild type MLL1 four-member complex (MLL1-4C) (Homo sapiens, UniProt P61964). The assay can be described thus: MLL1 LC-MS assay (SAH production). It counts as biochemical. The settings on record: read-out: (b) MLL LCMS Peptide Val.v.1 Qualified AC50. The essentials: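 SAH formation, measured by LC-MS/MS after a TFA quench containing d4-SAH, was normalised to no-compound and no-enzyme controls and fitted to a dose-response curve for IC50. Reactions ran 120 min at rt (pH 8.0 Tris buffer) with final 30 nM MLL1 four-member complex, 2.5 μM SAM and 10 μM biotinylated H3[1-21] peptide, after a 20-min enzyme/SAM-compound preincubation.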

The subject of assay [3] is MV4-11 cells. The assay can be described thus: MV4-11 6-day cell growth CTG (CellTiter-Glo) assay. The class given is cell-based. The settings on record: Homo sapiens, MV4-11, 144 h, 6 days, read-out: (c) MLL/WDR5 cell proliferation assay//MLL/WDR5 proliferation MV4:11 Qualified AC50. An outline of the steps: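 IC50 comes from a dose-response fit of % inhibition relative to DMSO controls, with viable cells measured by CellTiter-Glo luminescence. Compounds were tested over 12 points (1:3, starting at 50 μM final) on MV4-11 cells plated at 300/well and grown 6 days.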
(In ATP-based viability assays light output follows the ATP content of the culture.)

In the case of `CNc1nccn1Cc1cc2c(c(-c3cc(CO)cnc3Cl)c1)CCN([C@H](C)c1ccc(F)c(OC)c1)C2=O` [Example 57, (R)-5-(2-chloro-5-(hydroxymethyl)pyridin-3-yl)-2-(1-(4-fluoro-3-methoxyphenyl)ethyl)-7-((2-(methylamino)-1H-imidazol-1-yl)methyl)-3,4-dihydroisoquinolin-1(2H)-one], the IC50 in assay [1] was in the range of 10 to 1000 nM. Moreover, the AC50 in assay [2] and in assay [3] was 10 to 1000 nM in each case.
`CCOc1cc(CN2CCc3c(cc(CCN(C)CC)cc3-c3cc(OC)ncc3C)C2=O)ncc1C#N` [Example 164, 4-ethoxy-6-((7-(2-(ethyl(methyl)amino)ethyl)-5-(2-methoxy-5-methylpyridin-4-yl)-1-oxo-3,4-dihydroisoquinolin-2(1H)-yl)methyl)nicotinonitrile]: in assay [1], the IC50 was below 10 nM. Besides, the AC50 in assay [2] and in assay [3] was 10 to 1000 nM in each case.
`CCOc1cc([C@H](C)N2CCc3c(CN4CCOCC4)cc(Cn4ccnc4NC)cc3C2=O)ncc1Cl` [Example 23, (S)-2-(1-(5-chloro-4-ethoxypyridin-2-yl)ethyl)-7-((2-(methylamino)-1H-imidazol-1-yl)methyl)-5-(morpholinomethyl)-3,4-dihydroisoquinolin-1(2H)-one]: the IC50 in assay [1] was in the range of 10 to 1000 nM. The AC50 in assay [2] and in assay [3] was 10 to 1000 nM each time.
For `CCOc1cc([C@H](C)N2CCc3c(Cl)cc(Cn4ccnc4NC)cc3C2=O)ncc1C#N` (single isomer, unassigned) [Example 3], in assay [1], the IC50 is below 10 nM. The AC50 in assay [2] and in assay [3] was 10 to 1000 nM throughout.
For `CNc1nccn1Cc1cc2c(c(C3CC3)c1)CCN([C@@H](C)c1cc(OC)c(F)cn1)C2=O` [Example 85, (S)-5-cyclopropyl-2-(1-(5-fluoro-4-methoxypyridin-2-yl)ethyl)-7-((2-(methylamino)-1H-imidazol-1-yl)methyl)-3,4-dihydroisoquinolin-1(2H)-one], the IC50 in assay [1] was in the range of 10 to 1000 nM. Further, the AC50 in assay [2] and in assay [3] was 10 to 1000 nM throughout.
Take `CNc1nccn1Cc1cc2c(c(-c3cc(CO)cnc3Cl)c1)CCN(Cc1ccc(F)c(F)c1)C2=O` [Example 70, 5-(2-chloro-5-(hydroxymethyl)pyridin-3-yl)-2-(3,4-difluorobenzyl)-7-((2-(methylamino)-1H-imidazol-1-yl)methyl)-3,4-dihydroisoquinolin-1(2H)-one]: the IC50 in assay [1] fell in the range of 10 to 1000 nM. The AC50 in assay [2] and in assay [3] was 10 to 1000 nM in each case.
As to `CCOc1cc([C@H](C)N2CCc3c(cc(CCN(C)CCO)cc3-c3cc(F)cnc3C(F)(F)F)C2=O)ncc1C#N` [Example 228, (S)-4-ethoxy-6-(1-(5-(5-fluoro-2-(trifluoromethyl)pyridin-3-yl)-7-(2-((2-hydroxyethyl)(methyl)amino)ethyl)-1-oxo-3,4-dihydroisoquinolin-2(1H)-yl)ethyl)nicotinonitrile], the IC50 in assay [1] was below 10 nM. The AC50 in assay [2] and in assay [3] was 10 to 1000 nM in each case.
As for `CCOc1cc([C@H](C)N2CCc3c(cc(CCN(C)CC)cc3-c3cn(C)c(=O)c(F)c3C)C2=O)ncc1C#N` [Example 169, (S)-4-ethoxy-6-(1-(7-(2-(ethyl(methyl)amino)ethyl)-5-(5-fluoro-1,4-dimethyl-6-oxo-1,6-dihydropyridin-3-yl)-1-oxo-3,4-dihydroisoquinolin-2(1H)-yl)ethyl)nicotinonitrile], in assay [1], the IC50 was below 10 nM. Besides, the AC50 in assay [2] and in assay [3] was 10 to 1000 nM each time.
With `CCOc1cc([C@H](C)N2CCc3c(cc(CCN(C)CC)cc3-c3cc(CO)cnc3Cl)C2=O)ncc1C#N` [Example 124, (S)-6-(1-(5-(2-chloro-5-(hydroxymethyl)pyridin-3-yl)-7-(2-(ethyl(methyl)amino)ethyl)-1-oxo-3,4-dihydroisoquinolin-2(1H)-yl)ethyl)-4-ethoxynicotinonitrile], the IC50 in assay [1] was below 10 nM. Moreover, the AC50 in assay [2] and in assay [3] was 10 to 1000 nM each time.
For `CCOc1cc([C@H](C)N2CCc3c(cc(Cn4ccnc4C)cc3-c3cc(CN(C)C)nn3C)C2=O)ncc1C#N` (single isomer, unassigned) [Example 270], the IC50 in assay [1] was below 10 nM. Moreover, the AC50 in assay [2] and in assay [3] was 10 to 1000 nM each time.
On to `CCOc1cc([C@H](C)N2CCc3c(cc(Cn4ccnc4C)cc3-c3nc(C(F)F)nn3C)C2=O)ncc1C#N` [Example 293], for which the IC50 in assay [1] lay within 10 to 1000 nM. Further, the AC50 in assay [2] and in assay [3] was 10 to 1000 nM throughout.
In the case of `CCOc1cc([C@H](C)N2CCc3c(cc(CCN(C)CC)cc3-c3cccnc3C)C2=O)ncc1C#N` [Example 139, (S)-4-ethoxy-6-(1-(7-(2-(ethyl(methyl)amino)ethyl)-5-(2-methylpyridin-3-yl)-1-oxo-3,4-dihydroisoquinolin-2(1H)-yl)ethyl)nicotinonitrile], the IC50 in assay [1] is below 10 nM. Also, the AC50 in assay [2] and in assay [3] was 10 to 1000 nM throughout.
Consider `CCOc1cc([C@H](C)N2CCc3c(cc(CCN4C[C@@H](O)C[C@H]4C)cc3-c3ccc(F)nc3C)C2=O)ncc1C#N` [Example 226], for which, in assay [1], the IC50 is below 10 nM. Further, the AC50 in assay [2] and in assay [3] was 10 to 1000 nM each time.
On to `CCOc1cc([C@H](C)N2CCc3c(cc(CCN4CC[C@@H](O)[C@H]4C)cc3-c3ccc(F)nc3C)C2=O)ncc1C#N` [Example 225, 4-ethoxy-6-((S)-1-(5-(6-fluoro-2-methylpyridin-3-yl)-7-(2-((2R, 3R)-3-hydroxy-2-methylpyrrolidin-1-yl)ethyl)-1-oxo-3,4-dihydroisoquinolin-2(1H)-yl)ethyl)nicotinonitrile], for which the IC50 in assay [1] is below 10 nM. The AC50 in assay [2] and in assay [3] was 10 to 1000 nM throughout.
For the compound `CCOc1cc([C@H](C)N2CCc3c(CN(C)C4CC4)cc(Cn4ccnc4NC)cc3C2=O)ncc1Cl` [Example 22, (S)-2-(1-(5-chloro-4-ethoxypyridin-2-yl)ethyl)-5-((cyclopropyl(methyl)amino)methyl)-7-((2-(methylamino)-1H-imidazol-1-yl)methyl)-3,4-dihydroisoquinolin-1(2H)-one], the IC50 in assay [1] lay in the range of 10 to 1000 nM. Also, the AC50 in assay [2] and in assay [3] was 10 to 1000 nM each time.
Consider `CCOc1cc([C@H](C)N2CCc3c(CN(C)C)cc(Cn4ccnc4NC)cc3C2=O)ncc1F` (single isomer, unassigned) [Example 19], for which the IC50 in assay [1] lay in the range of 10 to 1000 nM. The AC50 in assay [2] and in assay [3] was 10 to 1000 nM each time.
Turning to `CCOc1cc(C(C)N2CCc3c(cc(CCN(C)CCF)cc3-c3ccc(F)nc3C)C2=O)ncc1C#N` (stereo not drawn) [Example 236], the IC50 in assay [1] is below 10 nM. The AC50 in assay [2] and in assay [3] was 10 to 1000 nM each time.
As for `CCOc1cc(CN2CCc3c(cc(CCN(C)CC)cc3-c3cn(C)nc3C)C2=O)ncc1C#N` [Example 129, 6-((5-(1,3-dimethyl-1H-pyrazol-4-yl)-7-(2-(ethyl(methyl)amino)ethyl)-1-oxo-3,4-dihydroisoquinolin-2(1H)-yl)methyl)-4-ethoxynicotinonitrile], the IC50 in assay [1] is below 10 nM. Besides, the AC50 in assay [2] and in assay [3] was 10 to 1000 nM each time.
Regarding `CCOc1cc(C(C)N2CCc3c(Br)cc(Cn4ccnc4NC)cc3C2=O)ncc1C#N` (stereo not drawn) [Example 1, 6-(1-(5-bromo-7-((2-(methylamino)-1H-imidazol-1-yl)methyl)-1-oxo-3,4 dihydroisoquinolin-2(1H)-yl)ethyl)-4-ethoxynicotinonitrile], the IC50 in assay [1] fell in the range of 10 to 1000 nM. The AC50 in assay [2] and in assay [3] was 10 to 1000 nM each time.
Take `CCOc1cc([C@H](C)N2CCc3c(cc(Cn4cc(C)nc4C)cc3-c3cn(C)c(=O)cc3C)C2=O)ncc1C#N` [Example 274]: the IC50 in assay [1] is below 10 nM. Besides, the AC50 in assay [2] and in assay [3] was 10 to 1000 nM throughout.
As to `CNc1nccn1Cc1cc2c(c(-c3ccnn3C)c1)CCN(Cc1ccc(F)c(OC)c1)C2=O` [Example 72, 2-(4-fluoro-3-methoxybenzyl)-5-(1-methyl-1H-pyrazol-5-yl)-7-((2-(methylamino)-1H-imidazol-1-yl)methyl)-3,4-dihydroisoquinolin-1(2H)-one], the IC50 in assay [1] is 10 to 1000 nM. Besides, the AC50 in assay [2] and in assay [3] was 10 to 1000 nM in each case.
For the compound `CCOc1cc(C(C)N2CCc3c(cc(CCN(C)CC)cc3-n3ccnc3)C2=O)ncc1C#N` (stereo not drawn) [Example 208], the IC50 in assay [1] lay in the range of 10 to 1000 nM. Besides, the AC50 is 10 to 1000 nM in assay [2] and 1000 to 25000 nM in assay [3].
In the case of `CCOc1cc(CN2CCc3c(cc(CCN(C)CC)cc3-c3cc(N)ncc3C)C2=O)ncc1C#N` [Example 180, 6-((5-(2-amino-5-methylpyridin-4-yl)-7-(2-(ethyl(methyl)amino)ethyl)-1-oxo-3,4-dihydroisoquinolin-2(1H)-yl)rnethyl)-4-ethoxynicotinonitrile], the IC50 in assay [1] was below 10 nM. Moreover, the AC50 in assay [2] and in assay [3] was 10 to 1000 nM throughout.
